The record followed here is patent US20250034127A1, “AUTOPHAGY INDUCING COMPOUNDS AND USES THEREOF, IN PARTICULAR FOR DISEASES OF THE CNS” (Samsara Therapeutics Inc., priority 2021, published 2025).

In the test the test system is U2OS cell line stabling expressing RFP-eGFP-hLC3b. As to the kind of experiment: Tandem reporter assay (autophagic flux). Format: cell-based, human. As to conditions: RFP-only puncta as percentage of DMSO-treated control, 24 hours. How it is done:
Selected compounds of this invention were also assessed for their ability to stimulate autophagy using a U2OS cell line stabling expressing RFP-cGFP-hLC3b (a tandem reporter cell line).
During the process of autophagy, the cargo to be degraded is first enveloped by organelles called autophagosomes. These autophagosomes then fuse with lysosomes, causing them to become acidified and their digestive enzymes to become activated. The term “autophagic flux” is used to represent the dynamic process of autophagy: autophagic flux refers to the whole process of autophagy, including autophagosome formation, maturation, fusion with lysosomes, subsequent breakdown and the release of macromolecules back into the cytosol (Zhang X J, Chen S, Huang K X, Le W D. Why should autophagic flux be assessed? Acta Pharmacol Sin. 2013 May; 34 (5): 595-9. doi: 10.1038/aps.2012.184. Epub 2013 Mar. 11). Compounds that stimulate autophagic flux stimulate the dynamic process of autophagy (the whole process of autophagy).
LC3b is a protein found in the membrane of autophagosomes which has been used to generate genetic reporters of autophagy in cells. In these systems a tandem fusion of LC3b is engineered with two fluorescent proteins of different wavelengths: one which is acid sensitive (for example eGFP, which fluoresces green) and the other which is acid insensitive (for example RFP, which fluoresces red). Cells expressing RFP-cGFP-hLC3b can be examined using fluorescent microscopy: the autophagosomes present will fluoresce in both channels (either yellow in an overlay of both channels or puncta that are present in both the individual red and green channels) but the autolysosomes present will fluoresce in the RFP (red) channel only. Using a fluorescent microscope, the number of autophagosomes and autolysosomes can be counted, allowing for the monitoring of both the induction of autophagy (total puncta count) and the rate of autophagic flux (ratio of red-only to red-and-green puncta). The influence of small molecules on autophagy induction and flux can be assessed using this system by comparison to a non-treated control.
Representative Procedure: Human osteosarcoma U2OS cells stably expressing RFP-eGFP-hLC3b were seeded (10,000 cells/well) into a 96-well glass-bottom plate (Cell Carrier Ultra, Perkin Elmer) in DMEM Glutamax media (Gibco) supplemented with 10% Fetal Bovine Serum (FBS) and antibiotics (100 u/ml penicillin, 100 μg/ml streptomycin, Invitrogen), then incubated overnight in a humified atmosphere at 37° C. and 5% CO2. The cells were then treated with the compounds of interest, dissolved in DMSO, in a duplicated 5- or 10-point dose-response. 8 wells were treated with an equivalent volume of DMSO, 4 with […] torin-1 as a positive control (MCE) and 4 wells with 0.4 μM torin-1 plus 0.2 μM bafilomycin (MCE) as a control for flux inhibition. The cells were returned to the incubator and the treatment continued for 24 hours. After treatment, the media was aspirated off and the cells fixed with a solution of 4% formaldehyde+1% glutaraldehyde (Sigma) in dPBS (plus magnesium and calcium, Gibco). Fixation was allowed to proceed for 15 minutes at room temperature then the fixative solution discarded and replaced with PBS (Gibco) plus Hoescht 33342 (1 μg/ml, Sigma). After 30 minutes the plates were imaged on an Opera Phenix confocal microscope (Perkin-Elmer) using a 40× water objective, collecting using DAPI, mCherry and GFP channels. Cells were detected based upon the staining of their nuclei with DAPI using the Harmony image analysis software (Perkin-Elmer) and the number of autophagosomes (GFP and RFP puncta) and autolysosomes (RFP only puncta) per cell were counted using the spot picking function within the software.
Background: In a reporter assay the amount or activity of a reporter protein is the signal.

Regarding `C[C@H]1CN(C(=O)c2nc(-c3cnn(-c4ccccc4)c3)c[nH]2)CCN1` [Compound 279, (3S)-3-methyl-1-[5-(1-phenyl-1H-pyrazol-4-yl)-1H-imidazole-2-carbonyl]piperazine], the “Autolysosome % DMSO activity (compound concentration of 1 μM)” value amounted to 123% and the “Autolysosome % DMSO activity (compound concentration of 10 μM)” value was determined as 158%.

Regarding `C[C@H]1CN(C(=O)c2csc(-c3cnn(-c4ccc(C5CC5)cc4)c3)n2)CCN1` [Compound 266, (3S)-1-{2-[1-(4-cyclopropylphenyl)-1H-pyrazol-4-yl]-1,3-thiazole-4-carbonyl}-3-methylpiperazine], the “Autolysosome % DMSO activity (compound concentration of 1 μM)” value was 176% and the “Autolysosome % DMSO activity (compound concentration of 10 μM)” value was found to be 273%.

`C[C@H]1CN(C(=O)c2csc(-c3cnn(-c4ccc(C(C)(C)C)cc4)c3)n2)CCN1` [Compound 270, (3S)-1-{2-[1-(4-tert-butylphenyl)-1H-pyrazol-4-yl]-1,3-thiazole-4-carbonyl}-3-methylpiperazine]: the “Autolysosome % DMSO activity (compound concentration of 1 μM)” value was found to be 251%.

As for `CC(C)N(C(=O)c1csc(-c2cnn(-c3ccccc3)c2)n1)[C@@H]1CN[C@H](C)C1` [Compound 299, N-[(3S,5R)-5-methylpyrrolidin-3-yl]-2-(1-phenyl-1H-pyrazol-4-yl)-N-(propan-2-yl)-1,3-thiazole-4-carboxamide], the “Autolysosome % DMSO activity (compound concentration of 1 μM)” value was 162% and the “Autolysosome % DMSO activity (compound concentration of 10 μM)” value is reported as 152%.

As to `CC1CC(N(C(=O)c2csc(-c3cnn(-c4ccccc4)c3)n2)C(C)C)CC(C)N1` (stereo not drawn) [Compound 298, N-(2,6-dimethylpiperidin-4-yl)-2-(1-phenyl-1H-pyrazol-4-yl)-N-(propan-2-yl)-1,3-thiazole-4-carboxamide], the “Autolysosome % DMSO activity (compound concentration of 1 μM)” value worked out at 187% and the “Autolysosome % DMSO activity (compound concentration of 10 μM)” value turned out to be 151%.

As to `CC(C)c1ccc(-n2cc(-c3nc(C(=O)N4CCN[C@@H](C)C4)cs3)cn2)cc1` [Compound 273, (3S)-3-methyl-1-(2-{1-[4-(propan-2-yl)phenyl]-1H-pyrazol-4-yl}-1,3-thiazole-4-carbonyl)piperazine], the “Autolysosome % DMSO activity (compound concentration of 1 μM)” value is 224%.

Consider `CC1CC(N(C(=O)c2csc(-c3cnn(-c4ccccc4)c3)n2)C(C)C)CCN1` (stereo not drawn) [Compound 297, N-(2-methylpiperidin-4-yl)-2-(1-phenyl-1H-pyrazol-4-yl)-N-(propan-2-yl)-1,3-thiazole-4-carboxamide], for which the “Autolysosome % DMSO activity (compound concentration of 1 μM)” value was determined as 109% and the “Autolysosome % DMSO activity (compound concentration of 10 μM)” value was 119%.
